For one data set, the system named is immobilized sAC protein. Briefly: Binding kinetics by surface plasmon resonance. The protocol:
After coupling, remaining reactive groups on the chip's surface were blocked with 1 M ethanolamine followed by 350 mM EDTA to wash away any free Ni^2+. […] All experiments included reference channels; i.e., inhibitor run over parallel channels without immobilized protein. Binding kinetics were determined by subtracting responses in the reference channels from responses in the active channels. Curves were fitted, and kon and koff values were determined using the Biacore 8K Insight Evaluation Software Version 2.0 (Cytiva) and a 1:1 binding kinetics model.

Data set [1] can be described thus: Serum levels after single i.p. injection. Particulars: single intraperitoneal (i.p.) injection. Type of data set: in vivo, mouse.
The subject of data set [2] is mouse sperm. Briefly: Flagellar beat analysis of single sperm. Type of data set: cell-based. The following applies: stimulation with 25 mM NaHCO3; 5 μM Example 1 or 10 nM Example 133. The protocol: An inverted dark-field video microscope (IX73; Olympus) with a 10× objective (mouse sperm) and a 20× objective (human sperm) (UPLSAPO, NA 0.8; Olympus) was combined with a high-speed camera (ORCA Fusion; Hamamatsu). Dark-field videos were recorded with a frame rate of 200 Hz. The temperature of the heated stage was set to 37° C. (stage top incubator WSKMX; TOKAI HIT).
An inverted dark-field video microscope (IX73; Olympus) with a 10×objective (mouse sperm) or a 20×objective (human sperm) (UPLSAPO, NA 0.8; Olympus) was combined with a high-speed camera (ORCA Fusion; Hamamatsu). Dark-field videos were recorded with a frame rate of 200 Hz. The temperature of the heated stage was set to 37° C. (stage top incubator WSKMX; TOKAI HIT). The images were preprocessed with the imageJ plugin SpermQ Preparator (Gaussian blur with sigma 0.5 px; Subtract background method with radius 5 px) and analyzed using the ImageJ plugin SpermQ [Reference 84]. The beat frequency was determined from the highest peak in the frequency spectrum of the curvature time course, obtained by Fast Fourier Transform.

The next data set has as its system epididymal mouse sperm. The data set is described as follows: Ex vivo sperm motility (CASA) from injected mice. Type of data set: in vivo. The following applies: for sperm motility ex vivo: one hour post-injection, diluted 1:200 in inhibitor-free media. As to the method:
For ex vivo assessment of mouse sperm from inhibitor-injected mice, sperm (25 μl) isolated at the indicated time points (1 hour to 24 hours post-injection) were loaded on a […] Leja slide (Hamliton Thorne) and placed on a microscope stage at 37° C. Sperm movements of 10 fields of at least 500 sperm were examined using computer-assisted sperm analysis (CASA) via Hamilton-Thorne digital image analyzer (IVOS II, Hamilton Thorne Research, Beverly, MA) with the following parameters: 30 frames, frame rate: 60 Hz, cell size: 30-170 μm^2.

For data set [3], the system named is human sperm. The data set is described as follows: Intracellular cAMP in sperm in vitro. Type of data set: cell-based. The following applies: for bicarbonate-induced cAMP rise: 5 μM Example 1 or 10 nM Example 133, capacitating media. As to the method: (§1) cAMP generation was measured in mouse and human sperm. For mouse sperm, aliquots of 2×10^6 mouse sperm were incubated for 12 minutes in the presence or absence of sAC inhibitor in non-capacitating or capacitating TYH buffer. For human sperm, aliquots of 2×10^6 human sperm were incubated for 30 minutes in the presence or absence of sAC inhibitor in non-capacitating or capacitating HTF buffer. In both cases, 0.1% DMSO was used as vehicle control.
(§2) After 5 min, 150 μl of sperm/inhibitor mix was diluted into 1.35 ml non-capacitating or capacitating media with no inhibitor. After 12 minutes (mouse sperm) or 30 minutes (human sperm), sperm were sedimented by centrifugation at 2,000×g for 3 minutes and lysed in 200 μl HCl for 10 minutes. Sperm lysates were centrifuged at 2,000×g for 3 minutes and the cAMP in the supernatant was acetylated and quantified using the Direct cAMP ELISA (Enzo).

Data set [4] has as its system mouse sperm. Briefly: Intracellular cAMP in sperm in vitro. Type of data set: cell-based. The following applies: for bicarbonate-induced cAMP rise: 5 μM Example 1 or 10 nM Example 133, capacitating media, 12 minutes. As to the method: as §1, §2
Data set [5] has as its system human sperm. The data set is described as follows: Human sperm hyperactivation (CASA). Type of data set: cell-based. The following applies: for hyperactivation of human sperm in vitro: capacitating media, inhibitor present; for inhibition of hyperactivation following dilution into inhibitor-free media: preincubation with 10 μM Example 1 or 100 nM Example 133, diluted 1:100. As to the method:
For human sperm, hyperactivation was assessed via CASA following incubation for 1 hour in non-capacitating HTF buffer or capacitating HTF buffer supplemented with 25 mM HCO3 and 5 mg/ml BSA in the presence or absence of the indicated concentration of sAC inhibitor; 0.1% DMSO was used as vehicle control. For rescue experiments, sperm were incubated in the presence of 5 mM db-cAMP and 500 μM IBMX. 8 μl sperm suspension was placed onto a microscope slide (Gold Seal, Erie Scientific, Portsmouth, NH) and covered with a 18×18 mm coverslip (globe Scientific, Mahway, NJ) to create a […] imaging chamber. CASA was performed following analysis guidelines provided by the company, i.e., 30 frames were acquired at a rate of 60 Hz, at least 200 sperm were analyzed per condition. The following parameters were measured: mean path velocity (VAP, μm/sec), curvilinear velocity (VCL, μm/sec), straight-line velocity (VSL, μm/sec), amplitude of lateral head displacement (ALH, μm), and beat cross frequency (BCF, Hz). Human sperm were considered hyperactivated when presenting VCL ≥150 μm/sec, LIN <50%, and ALH ≥[…].
Motility parameters were determined 1 to 45 minutes post dilution, DMSO-treated non-capacitated and capacitated human sperm were used as control. To calculate the percentage of inhibition, the hyperactivation percentage of sperm diluted in inhibitor-containing- or inhibitor-free media was normalized to the hyperactivation percentage of vehicle-treated capacitated sperm at the respective time point and subtracted from 100%.

Data set [6] has as its system human sperm. Briefly: Flagellar beat analysis of single sperm. The following applies: stimulation with 25 mM NaHCO3; 0.2 μM Example 1 (FIG. 13), 10 nM Example 133.
Source text: Motile sperm were allowed to swim up into the HTF layer, while immotile sperm, as well as other cells or tissue debris, did remain in the ejaculate fraction.
Where [7] appears, read: preincubation 5 min in 5 μM Example 1 or 10 nM Example 133, then dilution (legend 1:10; text 100-fold).

“Also recorded” adds a separate entry of the source.

As for `Cc1c(Cc2ccccc2)c(-c2cc(Cl)nc(N)n2)nn1C` [Example 1, 4-(4-benzyl-1,5-dimethyl-pyrazol-3-yl)-6-chloro-pyrimidin-2-amine], the “off-rate (T1/2)” value in the data set on immobilized sAC protein is 20 s. Moreover, the “time to maximum serum levels (C max)” value in data set [1] is no more than 7.5 min. Also, the “bicarbonate-induced change in flagellar beating / beat frequency” value in the data set with mouse sperm [2] and with human sperm [6] was “prevents bicarbonate-induced changes in flagellar beating pattern” each time. The “sperm motility ex vivo” value with epididymal mouse sperm (50 mg/kg i.p.) was “indistinguishable from sperm isolated from vehicle-injected mice”. The “bicarbonate-induced cAMP rise” value in the data set with human sperm [3] and in the data set on mouse sperm [4] was “blocks the bicarbonate-induced cAMP rise” each time. Also, in the data set with human sperm [5], the “hyperactivation of human sperm in vitro” value is recorded as “blocked hyperactivation”. Further, the “inhibition of hyperactivation following dilution into inhibitor-free media” value with human sperm [5] is “lost”.
As to `Nc1nc(Cl)cc(-c2nn(C(F)F)cc2Cc2ccccc2OCCN2CCOC[C@H]2CO)n1` [Example 133], the “off-rate (T1/2)” value in the data set with immobilized sAC protein came out at 4550 s. Further, the “time to maximum serum levels (C max)” value in data set [1] is no more than 7.5 min. Besides, the “bicarbonate-induced change in flagellar beating / beat frequency” value in the data set with mouse sperm [2] and in the data set with human sperm [6] was “more potent than Example 1” in each case. The “sperm that recovered (progressive) motility” value in the data set on epididymal mouse sperm (50 mg/kg i.p., 9 hours post injection, diluted 1:200) came to 20%. Further, the “sperm motility ex vivo” value with epididymal mouse sperm (50 mg/kg i.p.) is on record as “essentially immotile”. For the same compound, the cytotoxicity to sperm result with epididymal mouse sperm (exogenous membrane-permeable cAMP rescued motility) was “not cytotoxic”. The “bicarbonate-induced cAMP rise” value with human sperm [3] and in the data set with mouse sperm [4] was “completely block” each time. Besides, the “inhibition of bicarbonate-induced cAMP synthesis after dilution into inhibitor-free media” value with human sperm [3] (setting [7]) and with mouse sperm [4] (setting [7]) was “survived a 100-fold dilution; also recorded: inhibits capacitation induced cAMP rise in diluted sperm” in each case. Also, the “hyperactivation of human sperm in vitro” value in the data set with human sperm [5] is “blocked hyperactivation”. In addition, the “inhibition of hyperactivation following dilution into inhibitor-free media” value with human sperm [5] was “persisted”.
